Numbers after ± are expanded uncertainties.
Test: xn = mol fraction of the nth substance listed
Settings: 298.2 K, 100 kPa, Liquid, Pycnometric method

SMILES: Cc1ccc(-c2ncc(Cl)cc2-c2ccc(S(C)(=O)=O)cc2)cn1 [etoricoxib] + CC(=O)N(C)C
- mass density (x1 = 0.08112): 942.7 ± 0.8 kg/m3

SMILES: Cc1ccc(-c2ncc(Cl)cc2-c2ccc(S(C)(=O)=O)cc2)cn1 [etoricoxib] + CN(C)C=O
- mass density (x1 = 0.06899): 952.7 ± 0.8 kg/m3

SMILES: Cc1ccc(-c2ncc(Cl)cc2-c2ccc(S(C)(=O)=O)cc2)cn1 [etoricoxib] + OCCCCO
- mass density (x1 = 0.07226): 1039.8 ± 0.9 kg/m3

SMILES: Cc1ccc(-c2ncc(Cl)cc2-c2ccc(S(C)(=O)=O)cc2)cn1 [etoricoxib] + CCO
- mass density (x1 = 0.05374): 819.9 ± 0.7 kg/m3

SMILES: Cc1ccc(-c2ncc(Cl)cc2-c2ccc(S(C)(=O)=O)cc2)cn1 [etoricoxib] + O
- mass density (x1 = 1.56e-05): 994.8 ± 0.8 kg/m3

SMILES: Cc1ccc(-c2ncc(Cl)cc2-c2ccc(S(C)(=O)=O)cc2)cn1 [etoricoxib] + C1COCCO1
- mass density (x1 = 0.07301): 1026.8 ± 0.9 kg/m3

SMILES: Cc1ccc(-c2ncc(Cl)cc2-c2ccc(S(C)(=O)=O)cc2)cn1 [etoricoxib] + C[S+](C)[O-]
- mass density (x1 = 0.06044): 1105.6 ± 1 kg/m3
